PubChem BioAssay AID330 (DTP/NCI, 2004)
Where “and” joins values, the source holds several entries; their conditions need not be identical. Equal entries are not always repeated. Inconclusive results and toxic doses are left out.

Test system: P388 leukemia ip, CD2F1 mice, survival T/C
Assay: NCI In Vivo Anticancer Drug Screen. Data for tumor model P388 Leukemia (intraperitoneal) in CD2F1 (CDF1) mice
Details: endpoint: median survival time, higher = longer survival
How it was run: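 Mice carrying the transplanted tumor received test compound or vehicle. Survival was recorded in each group, and the value is the treated-group measurement divided by that of the vehicle-treated control group.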

[1] = dose: 25.0 mg/kg/injection, schedule: Q01DX009 (ip), vehicle: Klucel (hydroxypropylcellulose) (HPC)
[2] = dose: 50.0 mg/kg/injection, schedule: Q01DX009 (ip), vehicle: saline with Tween-80
[3] = dose: 50.0 mg/kg/injection, schedule: Q01DX009 (ip), vehicle: Klucel (hydroxypropylcellulose) (HPC)
[4] = dose: 100.0 mg/kg/injection, schedule: Q01DX009 (ip), vehicle: Klucel (hydroxypropylcellulose) (HPC)
[5] = dose: 200.0 mg/kg/injection, schedule: Q01DX009 (ip), vehicle: Klucel (hydroxypropylcellulose) (HPC)
[6] = dose: 75.0 mg/kg/injection, schedule: Q04DX003 (ip), vehicle: water
[7] = dose: 60.0 mg/kg/injection, schedule: Q01DX005 (ip), vehicle: saline with Tween-80
[8] = dose: 120.0 mg/kg/injection, schedule: Q01DX005 (ip), vehicle: saline with Tween-80
[9] = dose: 240.0 mg/kg/injection, schedule: Q01DX005 (ip), vehicle: saline with Tween-80
[10] = dose: 50.0 mg/kg/injection, schedule: Q01DX005 (ip), vehicle: saline with Tween-80
[11] = dose: 100.0 mg/kg/injection, schedule: Q01DX005 (ip), vehicle: saline with Tween-80
[12] = dose: 200.0 mg/kg/injection, schedule: Q01DX005 (ip), vehicle: saline with Tween-80
[13] = dose: 50.0 mg/kg/injection, schedule: Q01DX009 (ip), vehicle: saline
[14] = dose: 100.0 mg/kg/injection, schedule: Q01DX009 (ip), vehicle: saline
[15] = dose: 200.0 mg/kg/injection, schedule: Q01DX009 (ip), vehicle: saline
[16] = dose: 12.5 mg/kg/injection, schedule: Q01DX009 (ip), vehicle: saline with Tween-80
[17] = dose: 25.0 mg/kg/injection, schedule: Q01DX009 (ip), vehicle: saline with Tween-80

C[n+]1ccccc1-c1nc(-c2cccc[n+]2C)nc(-c2cccc[n+]2C)n1 was tested, and the T/C (dose: 12.5 mg/kg/injection, schedule: Q01DX009 (ip), vehicle: Klucel (hydroxypropylcellulose) (HPC)) was 96 % of control and the T/C [1] was 88 % of control.

For N#CCCCCCCCCCCCCCC1C=CCC1 (configuration not stated), the T/C (dose: 100.0 mg/kg/injection, schedule: Q01DX001 (ip), vehicle: saline) was 106 % of control, the T/C (dose: 200.0 mg/kg/injection, schedule: Q01DX001 (ip), vehicle: saline) was 99 % of control and the T/C (dose: 400.0 mg/kg/injection, schedule: Q01DX001 (ip), vehicle: saline) was 101 % of control.

For CN(C)c1ccc(N=Nc2ccc3c4c(cccc24)-c2ccccc2-3)cc1, the T/C [2] was 104 % of control, the T/C (dose: 100.0 mg/kg/injection, schedule: Q01DX009 (ip), vehicle: saline with Tween-80) was 96 % of control and the T/C (dose: 200.0 mg/kg/injection, schedule: Q01DX009 (ip), vehicle: saline with Tween-80) was 115 % of control.

CCCCNC1Cc2ccccc2CC1O (configuration not stated) was tested, and the T/C (dose: 0.79 mg/kg/injection, schedule: Q01DX005 (ip), vehicle: saline) was 100 % of control and 107 % of control, the T/C (dose: 1.56 mg/kg/injection, schedule: Q01DX005 (ip), vehicle: saline) was 100 % of control and 104 % of control and the T/C (dose: 3.12 mg/kg/injection, schedule: Q01DX005 (ip), vehicle: saline) was 101 % of control and 105 % of control and 115 % of control. The T/C (dose: 6.25 mg/kg/injection, schedule: Q01DX005 (ip), vehicle: saline) was 100 % of control and 108 % of control and 121 % of control and the T/C (dose: 12.5 mg/kg/injection, schedule: Q01DX005 (ip), vehicle: saline) was 104 % of control.

For NS(=O)(=O)c1ccc(N=NC2Sc3nc4ccccc4n3C2=O)cc1 (configuration not stated), the T/C (dose: 60.0 mg/kg/injection, schedule: Q01DX005 (ip), vehicle: Klucel (hydroxypropylcellulose) (HPC)) was 94 % of control and the T/C (dose: 120.0 mg/kg/injection, schedule: Q01DX005 (ip), vehicle: Klucel (hydroxypropylcellulose) (HPC)) was 91 % of control.

For CCC(CCC(C)C1CCC2C3CC=C4CC(OC(=O)CCC(=O)O)CCC4(C)C3CCC12C)C(C)C (configuration not stated), the T/C (dose: 100.0 mg/kg/injection, schedule: Q04DX003 (ip), vehicle: saline with Tween-80) was 95 % of control, the T/C (dose: 200.0 mg/kg/injection, schedule: Q04DX003 (ip), vehicle: saline with Tween-80) was 87 % of control and the T/C (dose: 400.0 mg/kg/injection, schedule: Q04DX003 (ip), vehicle: saline with Tween-80) was 87 % of control.

With CSCC(C)C(N)C(=O)O (configuration not stated) the T/C [3] was 109 % of control, the T/C [4] was 105 % of control and the T/C [5] was 100 % of control.

With COc1cccc2c1C(=O)c1c(O)c3c(c(O)c1C2=O)C[C@H](O)C[C@@H]3OC1CC(N)C(O)C(C)O1 (some centres not stated) the T/C (dose: 0.5 mg/kg/injection, schedule: Q04DX003 (ip), vehicle: saline) was 105 % of control, the T/C (dose: 1.0 mg/kg/injection, schedule: Q04DX003 (ip), vehicle: saline) was 114 % of control and the T/C (dose: 1.56 mg/kg/injection, schedule: Q01DX009 (ip), vehicle: water) was 155 % of control and 161 % of control. The T/C (dose: 2.0 mg/kg/injection, schedule: Q04DX003 (ip), vehicle: saline) was 107 % of control, the T/C (dose: 3.13 mg/kg/injection, schedule: Q01DX009 (ip), vehicle: water) was 174 % of control and the T/C (dose: 4.0 mg/kg/injection, schedule: Q04DX003 (ip), vehicle: saline) was 117 % of control. For the same compound, the T/C (dose: 4.7 mg/kg/injection, schedule: Q04DX003 (ip), vehicle: water) was 109 % of control, the T/C (dose: 6.25 mg/kg/injection, schedule: Q01DX009 (ip), vehicle: water) was 180 % of control and 209 % of control and the T/C (dose: 8.0 mg/kg/injection, schedule: Q04DX003 (ip), vehicle: saline) was 108 % of control. For the same compound, the T/C (dose: 12.5 mg/kg/injection, schedule: Q01DX009 (ip), vehicle: water) was 228 % of control and 236 % of control, the T/C (dose: 64.0 mg/kg/injection, schedule: Q04DX003 (ip), vehicle: saline) was 169 % of control and the T/C [6] was 181 % of control. For the same compound, the T/C (dose: 113.0 mg/kg/injection, schedule: Q04DX003 (ip), vehicle: water) was 116 % of control and the T/C (dose: 128.0 mg/kg/injection, schedule: Q04DX003 (ip), vehicle: saline) was 100 % of control.

COc1ccc2cc(C(=O)c3ccccc3)c(=O)oc2c1 was tested, and the T/C [7] was 93 % of control, the T/C [8] was 96 % of control and the T/C [9] was 96 % of control.

For C1=Nc2ccccc2/C1=C/c1c[nH]c2ccccc12, the T/C (dose: 25.0 mg/kg/injection, schedule: Q01DX005 (ip), vehicle: saline with Tween-80) was 110 % of control, the T/C [10] was 100 % of control and 103 % of control and 104 % of control and the T/C [11] was 101 % of control and 103 % of control and 104 % of control. The T/C [12] was 104 % of control and 118 % of control and 122 % of control and the T/C (dose: 400.0 mg/kg/injection, schedule: Q01DX005 (ip), vehicle: saline with Tween-80) was 104 % of control.

With CC(C)(CO)C(O)C(=O)NCCCO (configuration not stated) the T/C [13] was 103 % of control, the T/C [14] was 98 % of control and the T/C [15] was 100 % of control.

With CSc1nc2[nH]ncc2c(=O)[nH]1 the T/C [1] was 101 % of control, the T/C [3] was 99 % of control and the T/C [4] was 93 % of control. The T/C [5] was 86 % of control.

With COc1cccc2c1C(=O)c1c(O)c3c(c(O)c1C2=O)CC(O)(C(C)=O)CC3OC1CC(N)C(O)C(C)O1 (configuration not stated) (tested in a mixture with another compound) the T/C (dose: 4.69 mg/kg/injection, schedule: Q04DX003 (ip), vehicle: water) was 105 % of control and 110 % of control and 114 % of control, the T/C (dose: 9.38 mg/kg/injection, schedule: Q04DX003 (ip), vehicle: water) was 114 % of control and 124 % of control and 112 % of control and the T/C (dose: 9.4 mg/kg/injection, schedule: Q04DX003 (ip), vehicle: water) was 118 % of control and 103 % of control. For the same compound, the T/C (dose: 18.75 mg/kg/injection, schedule: Q04DX003 (ip), vehicle: water) was 114 % of control and 112 % of control and 116 % of control, the T/C (dose: 37.5 mg/kg/injection, schedule: Q04DX003 (ip), vehicle: water) was 114 % of control and 124 % of control and 118 % of control and the T/C [6] was 109 % of control [middle of 6 runs]. For the same compound, the T/C (dose: 150.0 mg/kg/injection, schedule: Q04DX003 (ip), vehicle: water) was 91 % of control and 98 % of control.

O=C1OC2CSCC2O1 (configuration not stated) was tested, and the T/C [13] was 96 % of control, the T/C [14] was 104 % of control and the T/C [15] was 101 % of control.

In the case of CC1=CC2=C(C#N)C(=O)OC2(C)C(c2ccccc2)C1 (configuration not stated), the T/C [7] is reported as 100 % of control, the T/C [8] is reported as 101 % of control and the T/C [9] is reported as 100 % of control.

For OCCC1CC2CCCCN2O1 (configuration not stated), the T/C (dose: 50.0 mg/kg/injection, schedule: Q04DX003 (ip), vehicle: saline) was 101 % of control, the T/C (dose: 100.0 mg/kg/injection, schedule: Q04DX003 (ip), vehicle: saline) was 103 % of control and the T/C (dose: 200.0 mg/kg/injection, schedule: Q04DX003 (ip), vehicle: saline) was 102 % of control.

With CCCC(CCC)=NNC(=S)SC the T/C [16] was 95 % of control, the T/C [17] was 95 % of control and the T/C [2] was 106 % of control and 95 % of control.

CCCCCCCCCCCN(C)C was tested, and the T/C [10] was 105 % of control and the T/C [11] was 105 % of control.

With CC1(O)Oc2c(cc(C(C)(C)C)cc2C(C)(C)C)C1=O (configuration not stated) the T/C (dose: 6.25 mg/kg/injection, schedule: Q01DX009 (ip), vehicle: saline with Tween-80) was 99 % of control, the T/C [16] was 102 % of control and the T/C [17] was 105 % of control.

With CCCOc1cc2c(cc1C(C)c1ccc(OC)cc1)OCO2 (configuration not stated) the T/C (dose: 25.0 mg/kg/injection, schedule: Q01DX005 (ip), vehicle: distilled water + alcohol) was 106 % of control and the T/C (dose: 400.0 mg/kg/injection, schedule: Q01DX005 (ip), vehicle: distilled water + alcohol) was 112 % of control and 114 % of control.

In the case of O=C(O)C(=O)O.O=C([O-])C(=O)[O-].O=C([O-])C(=O)[O-].[NH-]CC[NH-].[NH-]CC[NH-].[NH-]CC[NH-].[Ru+4].[Ru+5], the T/C (dose: 25.0 mg/kg/injection, schedule: Q04DX003 (ip), vehicle: water) is reported as 117 % of control and the T/C (dose: 50.0 mg/kg/injection, schedule: Q04DX003 (ip), vehicle: water) is reported as 151 % of control.

With C=C(C)C(=O)NCC(=O)Nc1ccc(CC(NC(C)=O)C(=O)OC)cc1 (configuration not stated) the T/C [10] was 102 % of control, the T/C [11] was 100 % of control and the T/C [12] was 89 % of control.

For c1ccc(N=C2SCCCS2)cc1, the T/C [3] was 103 % of control, the T/C [4] was 97 % of control and the T/C [5] was 105 % of control.

In the case of O=c1cc(F)cc[nH]1, the T/C (dose: 50.0 mg/kg/injection, schedule: Q01DX005 (ip), vehicle: saline) is reported as 103 % of control, the T/C (dose: 100.0 mg/kg/injection, schedule: Q01DX005 (ip), vehicle: saline) is reported as 104 % of control and the T/C (dose: 200.0 mg/kg/injection, schedule: Q01DX005 (ip), vehicle: saline) is reported as 109 % of control.
